Test results as given in ChEMBL document CHEMBL4651402, “Screening of ~5500 FDA-approved drugs and clinical candidates for anti-SARS-CoV-2 activity” (2021).
Square brackets hold non-standard residues; d marks the D form. Peptide text beside a SMILES is read from it. pGlu = O=C1CC[C@@H](C(=O)O)N1; Thz = O=C(O)[C@@H]1CSCN1

Test system: SARS-CoV-2
Test: microbe, parasite or virus in culture
Conditions: Severe acute respiratory syndrome coronavirus 2, Vero C1008, 48 h

| Structure (SMILES) | IC50 | IC50 (read-out: pIC50 (converted)) |
| --- | --- | --- |
| O=C1CC[C@@H](C(=O)O)N1 [PIDOLIC ACID] | > 20 µM | > 20 µM |
| O=C1CC[C@@H](C(=O)N2CSC[C@H]2C(=O)O)N1 [PIDOTIMOD] ([pGlu]-[Thz]-OH) | > 20 µM | > 20 µM |
| CC(C)=CCC/C(C)=C/CC/C(C)=C/CN1CCN(Cc2ccc3c(c2)OCO3)CC1 [PIFARNINE] | > 20 µM | > 20 µM |
| CC[C@@H]1C(=O)OC[C@@H]1Cc1cncn1C [PILOCARPINE] | > 20 µM | > 20 µM |
| N=C(N)NN [PIMAGEDINE] | > 20 µM | > 20 µM |
| O=C(NC[C@H](O)CO)c1ccncc1Nc1ccc(I)cc1F [PIMASERTIB] | > 20 µM | > 20 µM |
| CCOC(=O)C1(c2ccccc2)CCN(CCCNc2ccccc2)CC1 [PIMINODINE] | > 20 µM | > 20 µM |
| O=C(O)[C@H]1C2CCC(CC2)[C@@H]1Nc1nc(-c2c[nH]c3ncc(F)cc23)ncc1F [PIMODIVIR] | > 20 µM | > 20 µM |
| O=c1[nH]c2ccccc2n1C1CCN(CCCC(c2ccc(F)cc2)c2ccc(F)cc2)CC1 [PIMOZIDE] | > 20 µM | > 20 µM |
| CC(N/C(=N\C#N)Nc1ccncc1)C(C)(C)C (configuration not stated) [PINACIDIL ANHYDROUS] | > 20 µM | > 20 µM |
| CC(C)NCC(O)COc1cccc2[nH]ccc12 (configuration not stated) [PINDOLOL] | > 20 µM | > 20 µM |
| CCc1ccc(CCOc2ccc(CC3SC(=O)NC3=O)cc2)nc1 (configuration not stated) [PIOGLITAZONE] | > 20 µM | > 20 µM |
| NC(=O)C1(N2CCCCC2)CCN(CCCC(=O)c2ccc(F)cc2)CC1 [PIPAMPERONE] | > 20 µM | > 20 µM |
| CCn1cc(C(=O)O)c(=O)c2cnc(N3CCNCC3)nc21 [PIPEMIDIC ACID] | > 20 µM | > 20 µM |
| CC[N+]1(C)CCCC(OC(=O)C(O)(c2ccccc2)c2ccccc2)C1 (configuration not stated) [PIPENZOLATE] | > 20 µM | > 20 µM |
| c1ccc(-c2cc(CCC3CCNCC3)c3ccccc3n2)cc1 [PIPEQUALINE] | > 20 µM | > 20 µM |
| O=C(O)/C=C/C=C/c1ccc2c(c1)OCO2 [PIPERIC ACID] | > 20 µM | > 20 µM |
| CCN1CCCC(OC(=O)C(c2ccccc2)c2ccccc2)C1 (configuration not stated) [PIPERIDOLATE] | > 20 µM | > 20 µM |
| O=C(/C=C/C=C/c1ccc2c(c1)OCO2)N1CCCCC1 [PIPERINE] | > 20 µM | > 20 µM |

| Structure (SMILES) | IC50 | IC50 (read-out: pIC50 (converted)) |
| --- | --- | --- |
| O=C(O)c1ccc2c(c1)OCO2 [PIPERONYLIC ACID] | > 20 µM | > 20 µM |
| c1ccc2c(c1)OCC(CN1CCCCC1)O2 (configuration not stated) [PIPEROXAN] | > 20 µM | > 20 µM |
| CN1CCN(c2cc3c(nn2)Oc2ccccc2N3C)CC1 [PIPOFEZINE] | > 20 µM | > 20 µM |
| COc1c(C(O)CCc2ccc(O)cc2)c(OCCN2CCCCC2)c(OC)c2occc12 (configuration not stated) [PIPROFUROL] | > 20 µM | > 20 µM |
| Cc1nc2ccccn2c(=O)c1CCN1CCC(C(=O)c2ccc(F)cc2)CC1 [PIRENPERONE] | > 20 µM | > 20 µM |
| CN1CCN(CC(=O)N2c3ccccc3C(=O)Nc3cccnc32)CC1 [PIRENZEPINE] | > 20 µM | > 20 µM |
| NS(=O)(=O)c1cc(C(=O)O)cc(N2CCCC2)c1Oc1ccccc1 [PIRETANIDE] | > 20 µM | > 20 µM |
| Cc1ccc(=O)n(-c2ccccc2)c1 [PIRFENIDONE] | > 20 µM | > 20 µM |
| c1cnc(N2CCN(Cc3ccc4c(c3)OCO4)CC2)nc1 [PIRIBEDIL] | > 20 µM | > 20 µM |
| Cc1ccc2c(c1)c1c3n2CCNC3CCC1 (configuration not stated) [PIRLINDOLE] | > 20 µM | > 20 µM |
| Cc1cc(CC(C)CC(C)(C)C)n(O)c(=O)c1 (configuration not stated) [PIROCTONE] | > 20 µM | > 20 µM |
| CN1CCC/C1=N\C(=N\c1ccccc1)N1CCCC1 [PIROGLIRIDE] | > 20 µM | > 20 µM |
| NC(=O)C(CCN1CCN2CCCC2C1)(c1ccccc1)c1ccccc1 (configuration not stated) [PIROLAZAMIDE] | > 20 µM | > 20 µM |
| CCn1cc(C(=O)O)c(=O)c2cnc(N3CCCC3)nc21 [PIROMIDIC ACID] | > 20 µM | > 20 µM |
| NCCCNc1ccc2c3c(nn2CCNCCO)-c2c(O)ccc(O)c2C(=O)c13 [PIROXANTRONE] | > 20 µM | > 20 µM |
| CN1C(C(=O)Nc2ccccn2)=C(O)c2ccccc2S1(=O)=O [PIROXICAM] | > 20 µM | > 20 µM |
| CCc1[nH]c(=O)[nH]c1C(=O)c1ccncc1 [PIROXIMONE] | > 20 µM | > 20 µM |
| O=C(O)C[C@H](O)C[C@H](O)/C=C/c1c(C2CC2)nc2ccccc2c1-c1ccc(F)cc1 [PITAVASTATIN] | > 50.1 µM | > 50.1 µM |
| Clc1ccc(CCCOCCCN2CCCCC2)cc1 [PITOLISANT] | > 20 µM | > 20 µM |

| Structure (SMILES) | IC50 | IC50 (read-out: pIC50 (converted)) |
| --- | --- | --- |
| CC(C)(C)C(=O)NCCCC(=O)O [PIVAGABINE] | > 20 µM | > 20 µM |
| CC(C)(C)C(=O)OCOC(=O)[C@@H]1N2C(=O)[C@@H](NC(=O)[C@H](N)c3ccccc3)[C@H]2SC1(C)C [PIVAMPICILLIN] | > 20 µM | > 20 µM |
| CC(C)(C)C(=O)NNCc1ccccc1 [PIVHYDRAZINE] | > 20 µM | > 20 µM |
| CN1CCC(=C2c3ccccc3CCc3sccc32)CC1 [PIZOTYLINE] | > 20 µM | > 20 µM |
| C[C@@H](Nc1ncnc2[nH]c(-c3ccc(O)cc3)cc12)c1ccccc1 [PKI-166] | > 20 µM | > 20 µM |
| Cc1cc(CCCOc2c(C)cc(-c3noc(C(F)(F)F)n3)cc2C)on1 [PLECONARIL] | > 20 µM | > 20 µM |
| CC1=CC(=O)c2c(O)cccc2C1=O [PLUMBAGIN] | > 20 µM | > 20 µM |
| O=C(N[C@H]1CN2CCC1CC2)c1ccc(Cl)cc1 [PNU-282987] | > 20 µM | > 20 µM |
| COc1cc([C@@H]2c3cc4c(cc3[C@H](O)[C@H]3COC(=O)[C@H]23)OCO4)cc(OC)c1OC [PODOFILOX] | > 20 µM | > 20 µM |
| C[N+]1(C)CCCC1COC(=O)C(O)(c1ccccc1)c1ccccc1 (configuration not stated) [POLDINE] | > 20 µM | > 20 µM |
| CN1C(CSCC(F)(F)F)Nc2cc(Cl)c(S(N)(=O)=O)cc2S1(=O)=O (configuration not stated) [POLYTHIAZIDE] | > 20 µM | > 20 µM |
| CSCC[C@H](N)C(=O)N[C@@]1(C(=O)O)CS(=O)(=O)[C@H]2[C@H](C(=O)O)[C@H]21 [POMAGLUMETAD METHIONIL ANHYDROUS] | > 20 µM | > 20 µM |
| Nc1cccc2c1C(=O)N(C1CCC(=O)NC1=O)C2=O (configuration not stated) [POMALIDOMIDE] | > 20 µM | > 20 µM |
| O=C(O)Cc1nn(Cc2ccc(Br)cc2F)c(=O)c2ccccc12 [PONALRESTAT] | > 20 µM | > 20 µM |
| CCC/N=C1\S/C(=C\c2ccc(OC[C@H](O)CO)c(Cl)c2)C(=O)N1c1ccccc1C [PONESIMOD] | > 20 µM | > 20 µM |
| C=CC(=O)N1CCC(Oc2cc3c(Nc4ccc(Cl)c(Cl)c4F)ncnc3cc2OC)CC1 [POZIOTINIB] | > 20 µM | > 20 µM |
| CCCCc1nc2cc(/C=C/C(=O)NO)ccc2n1CCN(CC)CC [PRACINOSTAT] | > 20 µM | > 20 µM |
| CC(=O)Nc1ccc(OCC(O)CNC(C)C)cc1 (configuration not stated) [PRACTOLOL] | > 20 µM | > 20 µM |
